Reference: PMC4806491, “The milk-derived fusion peptide, ACFP, suppresses the growth of primary human ovarian cancer cells by regulating apoptotic gene expression and signaling pathways” (BMC Cancer, 2016)
Where two headings read alike, the source gives them in different places. Positions of bridges follow the written chain, without caps; N, C: chain ends. Residues, ends and D or L forms follow the SMILES beside them.

System: primary ovarian cancer cells
Settings: High dose 5×10^-3 g/L, 48 h
Procedure: We utilized cDNA microarrays to observe the effect of ACFP on gene expression in primary ovarian cancer cells. Cells were treated with 0 (the vehicle group, as control), 5 × 10^6 g/L and 5 × 10^3 g/L ACFP, respectively, and cultured for 48 h at 37 °C in 5 % CO2. Cells were later digested and collected for total RNA extraction using Trizol. The RNA concentrations and purities were detected with a spectrophotometer. The experiments were performed in duplicate on a single total RNA preparation from the cells. Signal values were presented as the mean value of two replicate experiments. RNA samples were used to generate human whole genome expression profiling microarray (Yeli Bioscience Co., Ltd.; Shanghai, China). RNA was subsequently converted into digoxigenin-labeled complementary RNA and hybridized to a human genome microarray system (Human OneArray Microarray, from Phalanx Biotech Group, Taiwan). The chips were scanned by a GeeDom® LuxScan 10 K microarray scanner. LuxScan3.0 software was used to extract probe fluorescence signals and analyze images. Finally, the original data were processed by normalizing.

CC[C@H](C)[C@@H]1NC(=O)[C@H](CO)NC(=O)[C@@H]2CCCN2C(=O)[C@H](C)NC(=O)CNC(=O)[C@H](CC(C)C)NC(=O)[C@H](CCCCN)NC(=O)[C@H](CCCCN)NC(=O)[C@H](CCSC)NC(=O)[C@H](CCCNC(=N)N)NC(=O)[C@H](Cc2c[nH]c3ccccc23)NC(=O)[C@H](CCC(N)=O)NC(=O)[C@H](Cc2c[nH]c3ccccc23)NC(=O)[C@H](CCCNC(=N)N)NC(=O)[C@H](CCCNC(=N)N)NC(=O)[C@@H](NC(=O)[C@H](CCCCN)NC(=O)[C@@H](N)Cc2ccccc2)CSSC[C@@H](C(=O)N[C@H](C(=O)N[C@@H](CCCNC(=N)N)C(=O)N[C@@H](CCCNC(=N)N)C(=O)N[C@@H](C)C(=O)N[C@@H](Cc2ccccc2)C(=O)NCC(=O)NCC(=O)NCC(=O)NCC(=O)N[C@@H](CO)C(=O)N2CCC[C@H]2C(=O)NCC(=O)N2CCC[C@H]2C(=O)N[C@H](C(=O)N2CCC[C@H]2C(=O)N[C@@H](CC(N)=O)C(=O)O)[C@@H](C)CC)C(C)C)NC(=O)[C@H]([C@@H](C)O)NC1=O [ACFP] (H-FKCRRWQWRMKKLGAPSITCVRRAFGGGGSPGPIPN-OH; disulfide 3-20; N-terminus and C-terminus assumed)
GTF2IP1 Ratio (ACFP/control) (NM-002970): 0.24
IGFBP5 Ratio (ACFP/control) (NM-003488): 0.23
MYLK Ratio (ACFP/control) (NM-004638): 0.23
NKX3-1 Ratio (ACFP/control) (NM-004824): 3.11
PLA2G5 Ratio (ACFP/control) (NM-005322): 0.46
POLH Ratio (ACFP/control) (NM-005429): 0.12
PSMA1 Ratio (ACFP/control) (NM-005682): 0.49
STAT5B Ratio (ACFP/control) (NM-006777): 2.03
STAT6 Ratio (ACFP/control) (NM-006778): 10.8
UPP1 Ratio (ACFP/control) (NM-007378): 0.42
TNFSF18 Ratio (ACFP/control) (NM-008995): 0.41
MAP4K4 Ratio (ACFP/control) (NM-009448): 0.41
BTF/BCLAF1 Ratio (ACFP/control) (NM-009774): 2.79
TMEFF1 Ratio (ACFP/control) (NM-016522): 7.91
RAB18 Ratio (ACFP/control) (NM-022931): 0.25
TCF/LEF1 Ratio (ACFP/control) (NM-051176): 0.35
PINX1 Ratio (ACFP/control) (NM-054984): 0.47
RINT-1 Ratio (ACFP/control) (NM-060561): 0.17
C17orf37 Ratio (ACFP/control) (NM-084299): 0.38
ZNF512 Ratio (ACFP/control) (NM-084450): 0.47
AKT1 Ratio (ACFP/control) (NM_000207): 0.27
ARHE Ratio (ACFP/control) (NM_000390): 3.39
BAG1 Ratio (ACFP/control) (NM_000573): 0.33
BAX Ratio (ACFP/control) (NM_000581): 6.35
BCL-xl Ratio (ACFP/control) (NM_000598): 0.19
C1QG Ratio (ACFP/control) (NM_000714): 2.68
CASP3 Ratio (ACFP/control) (NM_000836): 5.34
CCNB1 Ratio (ACFP/control) (NM_000891, cyclinB1): 0.21
TNFRSF8 Ratio (ACFP/control) (NM_000943, first entry): 3.22
TNFRSF8 Ratio (ACFP/control) (NM_000943, second entry): 3.22
CDC25C Ratio (ACFP/control) (NM_000995): 0.32
CDKN1A Ratio (ACFP/control) (NM_001026): 6.58
CDKN1A/p21 Ratio (ACFP/control) (NM_001026, second entry): 3.58
CKS2 Ratio (ACFP/control) (NM_001164): 8.95
DVL1 Ratio (ACFP/control) (NM_001855): 2.46
GRK4 Ratio (ACFP/control) (NM_002868): 0.37
GRK5 Ratio (ACFP/control) (NM_002869): 0.47
GRK6 Ratio (ACFP/control) (NM_002870): 0.26
GSTM4 Ratio (ACFP/control) (NM_002948): 2.72
GSTM5 Ratio (ACFP/control) (NM_002949): 4.84
IRF7 Ratio (ACFP/control) (NM_003665): 4.50
ITGA5 Ratio (ACFP/control) (NM_003678): 0.43
PKIA Ratio (ACFP/control) (NM_005569): 2.74
MAPK3/ERK1 Ratio (ACFP/control) (NM_005595): 0.35
MAPK8/JNK1 Ratio (ACFP/control) (NM_005599): 2.74
MAPK13/p38 delta Ratio (ACFP/control) (NM_005603): 3.04
PSMB8 Ratio (ACFP/control) (NM_005696): 3.24
TNFRSF1A Ratio (ACFP/control) (NM_007132, first entry): 2.15
TNFRSF1A Ratio (ACFP/control) (NM_007132, second entry): 2.08
ZNF12 Ratio (ACFP/control) (NM_007559): 3.66
BAT5 Ratio (ACFP/control) (NM_007920): 7.48
PABPN1 Ratio (ACFP/control) (NM_008106): 9.8
TNFRSF10B Ratio (ACFP/control) (NM_008795): 4.85
STK17B Ratio (ACFP/control) (NM_009262): 2.97
TRAF4 Ratio (ACFP/control) (NM_009618): 3.62
USP34 Ratio (ACFP/control) (NM_009736): 4.52
GOLGA5 Ratio (ACFP/control) (NM_009950): 2.95
SUI1 Ratio (ACFP/control) (NM_010209): 9.85
SPINT2 Ratio (ACFP/control) (NM_010653): 10.25
PIK3R5 Ratio (ACFP/control) (NM_023533): 0.44
CARD10 Ratio (ACFP/control) (NM_029775): 4.32
FLJ39616 Ratio (ACFP/control) (NM_051275): 2.53
GNG12 Ratio (ACFP/control) (NM_055970): 8.30
BCORL1 Ratio (ACFP/control) (NM_063035): 0.25
CARD14 Ratio (ACFP/control) (NM_079092): 3.06
BCL2L14 Ratio (ACFP/control) (NM_079370): 2.57
FLJ13848 Ratio (ACFP/control) (NM_079829): 9.45
SNARK Ratio (ACFP/control) (NM_081788): 3.11
C1QTNF6 Ratio (ACFP/control) (NM_114904, first entry): 6.26
C1QTNF6 Ratio (ACFP/control) (NM_114904, second entry): 6.26
LOC441241 Ratio (ACFP/control) (NM_441241): 5.22
